This test deals with T1, ALDH-40 (Bacillus subtilis, UniProt P94358).
T1 sequence (P94358 1-485): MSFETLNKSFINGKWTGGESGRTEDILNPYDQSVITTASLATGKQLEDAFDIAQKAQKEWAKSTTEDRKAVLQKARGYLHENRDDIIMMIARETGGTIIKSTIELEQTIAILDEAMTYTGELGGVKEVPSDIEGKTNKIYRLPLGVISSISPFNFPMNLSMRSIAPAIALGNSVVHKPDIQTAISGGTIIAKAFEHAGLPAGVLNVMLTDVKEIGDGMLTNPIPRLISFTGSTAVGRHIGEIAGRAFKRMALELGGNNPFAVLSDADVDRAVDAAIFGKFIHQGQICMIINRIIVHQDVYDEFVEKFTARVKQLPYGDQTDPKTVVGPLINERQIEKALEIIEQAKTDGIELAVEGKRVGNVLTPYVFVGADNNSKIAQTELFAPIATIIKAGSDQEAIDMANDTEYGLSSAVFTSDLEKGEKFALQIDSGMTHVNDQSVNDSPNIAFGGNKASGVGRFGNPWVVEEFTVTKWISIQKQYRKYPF
Kind of test: HPLC, Michaelis-Menten fit. It counts as biochemical. The following applies: 0.5 μM enzyme, NAD+ 2 mM, 50 mM Tris-HCl pH 8.0, 30 °C.

As for cinnamaldehyde [2a], the Michaelis constant (Km) is 10 ± 2.7 mM.

These data come from article PMC10876487 (Synthetic and Systems Biotechnology, 2024).
